Experimental findings from US20250092039A1, “GLUTARIMIDE-CONTAINING PAN-KRAS-MUTANT DEGRADER COMPOUNDS AND USES THEREOF” (Tiger Biotherapeutics Inc., priority 2022, published 2025) are described below.

The target in one experiment is KRAS-G12V/RAF1 (Homo sapiens (Human), UniProt P01116, G12V). As to the kind of experiment: KRAS/RAF1 binding inhibition assay (AlphaScreen). Summed up: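 IC50 comes from variable-slope nonlinear fits of % inhibition (relative to DMSO) against inhibitor concentration. The AlphaScreen signal tracks the interaction of GppNHp-bound KRAS G12V with the RAF1 RBD after 60 min at 4° C with compound in 2% DMSO final.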
Background: In Alpha technology, singlet oxygen from a donor bead excites a nearby acceptor bead.

For the next experiment, the target named is KRAS G12V (Homo sapiens (Human), UniProt P01116, G12V). As to the kind of experiment: KRAS G12V degradation in SW620 cells (Western blot, DC50). In kind it is cell-based. The settings on record: 24 hours. Summed up: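 KRAS levels were quantified by fluorescent Western blot as percent of the DMSO control after 24 h of compound exposure at 37° C in homozygous KRAS G12V SW620 cells. A four-parameter variable-slope fit of the dose-response gave the half-maximal degradation concentration.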

The next experiment concerns SW620 cells. Description: 3D cell growth inhibition of SW620 cells carrying endogenous KRAS G12V mutation (CellTiter-Glo 3D, GI50). The settings on record: Homo sapiens, SW-620, 144 h, read-out: SW620 3D cell growth GI50. In kind it is cell-based. A digest of the protocol: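 […], compound exposure lasted 6 days at 37° C, added the day after plating from DMSO stocks over a concentration range. Cells: SW620, KRAS G12V, 3D culture.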

Each structure is given as a SMILES string. Like-named read-outs stand apart in the source and are kept apart here. Bounds are passed on as bounds.

Chain of KRAS G12V (P01116-2 other isoform, or with tags, fused parts or gaps G12V): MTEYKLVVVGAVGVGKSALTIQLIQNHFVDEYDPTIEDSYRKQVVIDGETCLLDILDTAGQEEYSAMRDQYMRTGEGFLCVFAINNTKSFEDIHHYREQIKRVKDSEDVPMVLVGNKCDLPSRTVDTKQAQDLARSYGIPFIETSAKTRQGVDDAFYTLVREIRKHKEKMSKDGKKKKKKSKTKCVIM
Chain of KRAS-G12V/RAF1 (P01116-2 other isoform, or with tags, fused parts or gaps G12V): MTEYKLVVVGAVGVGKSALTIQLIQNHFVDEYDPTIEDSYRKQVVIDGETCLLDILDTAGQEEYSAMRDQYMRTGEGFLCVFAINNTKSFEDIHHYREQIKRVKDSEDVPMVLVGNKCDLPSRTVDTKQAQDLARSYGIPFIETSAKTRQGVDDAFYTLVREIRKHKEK

Usually IC50 stands for the point on the concentration scale where inhibition reaches its midpoint. A high value points to weaker potency. In general, DC50 refers to the concentration at which degradation of the target reaches its halfway point. High values mean degradation only at high concentration, low ones degradation at low concentration. A word on the GI50: it is the concentration at which growth is held to half of that of the control. The compound `CCc1cccc2cc(O)cc(-c3ncc4c(N5CCC[C@@](C)(O)C5)nc(OCC5(CN6CCC7(CC6)CC(CN6CCN(c8ccc9c(c8)CN([C@H]8CCC(=O)NC8=O)C9=O)CC6)C7)CC5)nc4c3F)c12` [Compound 87, (S)-3-(5-(4-((7-((1-(((7-(8-ethyl-3-hydroxynaphthalen-1-yl)-8-fluoro-4-((R)-3-hydroxy-3-methylpiperidin-1-yl)pyrido[4,3-d]pyrimidin-2-yl)oxy)methyl)cyclopropyl)methyl)-7-azaspiro[3.5]nonan-2-yl)methyl)piperazin-1-yl)-1-oxoisoindolin-2-yl)piperidine-2,6-dione] returned an IC50 on KRAS-G12V/RAF1 of 20 to 200 nM. Also, the DC50 at KRAS G12V fell in the range of 1 to 10 nM. Moreover, the GI50 in the experiment on SW620 cells is < 10 nM.
For `CCc1c(F)ccc2cc(N)cc(-c3ncc4c(N5CCC[C@@](C)(O)C5)nc(OCC5(CN6CCC7(CC6)CC(CN6CCN(c8ccc9c(c8)CN([C@H]8CCC(=O)NC8=O)C9=O)CC6)C7)CC5)nc4c3F)c12` [Compound 88, (S)-3-(5-(4-((7-((1-(((7-(3-amino-8-ethyl-7-fluoronaphthalen-1-yl)-8-fluoro-4-((R)-3-hydroxy-3-methylpiperidin-1-yl)pyrido[4,3-d]pyrimidin-2-yl)oxy)methyl)cyclopropyl)methyl)-7-azaspiro[3.5]nonan-2-yl)methyl)piperazin-1-yl)-1-oxoisoindolin-2-yl)piperidine-2,6-dione], the IC50 at KRAS-G12V/RAF1 was > 200 nM. For the same compound, the half-maximal degradation concentration (DC50) on KRAS G12V was > 100 nM. Further, the concentration for 50% growth inhibition (GI50) with SW620 cells (SW620 cells, 6 days) lay within 10 to 100 nM.
In the case of `CCc1c(F)ccc2cc(N)cc(-c3ncc4c(N5CCC[C@@](C)(O)C5)nc(OCC5(CN6CCC(CN7CCN(c8ccc9c(c8)CN([C@H]8CCC(=O)NC8=O)C9=O)CC7)CC6)CC5)nc4c3F)c12` [Compound 89, (S)-3-(5-(4-((1-((1-(((7-(3-amino-8-ethyl-7-fluoronaphthalen-1-yl)-8-fluoro-4-((R)-3-hydroxy-3-methylpiperidin-1-yl)pyrido[4,3-d]pyrimidin-2-yl)oxy)methyl)cyclopropyl)methyl)piperidin-4-yl)methyl)piperazin-1-yl)-1-oxoisoindolin-2-yl)piperidine-2,6-dione], at KRAS-G12V/RAF1, the IC50 is > 200 nM. For the same compound, the DC50 at KRAS G12V was > 100 nM. In the experiment with SW620 cells (SW620 cells, 6 days), the GI50 was > 100 nM.
With `CCc1c(F)ccc2cc(O)cc(-c3ncc4c(N5C[C@@H]6C[C@H](C5)[C@H](O)C6)nc(OCC5(CN6CCC7(CC6)CC(CN6CCN(c8ccc9c(c8)CN([C@H]8CCC(=O)NC8=O)C9=O)CC6)C7)CC5)nc4c3F)c12` [Compound 90, (S)-3-(5-(4-((7-((1-(((7-(8-ethyl-7-fluoro-3-hydroxynaphthalen-1-yl)-8-fluoro-4-((IR,5R,6R)-6-hydroxy-3-azabicyclo[3.2.1]octan-3-yl)pyrido[4,3-d]pyrimidin-2-yl)oxy)methyl)cyclopropyl)methyl)-7-azaspiro[3.5]nonan-2-yl)methyl)piperazin-1-yl)-1-oxoisoindolin-2-yl)piperidine-2,6-dione], the half-inhibitory concentration (IC50) at KRAS-G12V/RAF1 is > 200 nM. Besides, on KRAS G12V, the DC50 was in the range of 1 to 10 nM. Further, the GI50 in the experiment on SW620 cells (SW620 cells, 6 days) was < 10 nM.
The corresponding values for `CCc1c(F)ccc2cc(O)cc(-c3ncc4c(N5CCOCC(C)(O)C5)nc(OCC5(CN6CCC(CN7CCN(c8ccc9c(c8)CN([C@H]8CCC(=O)NC8=O)C9=O)CC7)CC6)CC5)nc4c3F)c12` (stereo partly drawn) [Compound 92, (3S)-3-(5-(4-((1-((1-(((7-(8-ethyl-7-fluoro-3-hydroxynaphthalen-1-yl)-8-fluoro-4-(6-hydroxy-6-methyl-1,4-oxazepan-4-yl)pyrido[4,3-d]pyrimidin-2-yl)oxy)methyl)cyclopropyl)methyl)piperidin-4-yl)methyl)piperazin-1-yl)-1-oxoisoindolin-2-yl)piperidine-2,6-dione] are 20 to 200 nM, 1 to 10 nM and < 10 nM.
Take `CCc1c(F)ccc2cc(O)cc(-c3ncc4c(N5CCOC[C@@](C)(O)C5)nc(OCC5(CN6CCC(CN7CCN(c8ccc9c(c8)CN([C@H]8CCC(=O)NC8=O)C9=O)CC7)CC6)CC5)nc4c3F)c12` [Compound 104, (3S)-3-[5-[4-[[1-[[1-[[7-(8-ethyl-7-fluoro-3-hydroxy-1-naphthyl)-8-fluoro-4-[(6S)-6-hydroxy-6-methyl-1,4-oxazepan-4-yl]pyrido[4,3-d]pyrimidin-2-yl]oxymethyl]cyclopropyl]methyl]-4-piperidyl]methyl]piperazin-1-yl]-1-oxo-isoindolin-2-yl]piperidine-2,6-dione]: the IC50 on KRAS-G12V/RAF1 was in the range of 20 to 200 nM. Further, on KRAS G12V (cell prints a figure, not a class symbol), the DC50 turned out to be 2 nM. Also, the concentration for 50% growth inhibition (GI50) in the experiment on SW620 cells (SW620 cells, 6 days) is < 10 nM.
With `CCc1c(F)ccc2cc(O)cc(-c3ncc4c(N5CCOC[C@@](C)(O)C5)nc(OCC5(CN6CCC7(CC6)CC(CN6CCN(c8ccc9c(c8)CN([C@H]8CCC(=O)NC8=O)C9=O)CC6)C7)CC5)nc4c3F)c12` [Compound 105, (S)-3-(5-(4-((7-((1-(((7-(8-ethyl-7-fluoro-3-hydroxynaphthalen-1-yl)-8-fluoro-4-((S)-6-hydroxy-6-methyl-1,4-oxazepan-4-yl)pyrido[4,3-d]pyrimidin-2-yl)oxy)methyl)cyclopropyl)methyl)-7-azaspiro[3.5]nonan-2-yl)methyl)piperazin-1-yl)-1-oxoisoindolin-2-yl)piperidine-2,6-dione], the IC50 at KRAS-G12V/RAF1 was in the range of 20 to 200 nM. The DC50 on KRAS G12V was > 100 nM. For the same compound, in the experiment on SW620 cells (SW620 cells, 6 days), the GI50 was > 100 nM.
Take `CCc1c(F)ccc2cc(O)cc(-c3ncc4c(N5CCCn6nc(C(=O)N(C)C)c(Cl)c6C5)nc(OCC5(CN6CCC(CN7CCN(c8ccc9c(c8)CN([C@H]8CCC(=O)NC8=O)C9=O)CC7)CC6)CC5)nc4c3F)c12` [Compound 108, (S)-3-chloro-5-(2-((1-((4-((4-(2-(2,6-dioxopiperidin-3-yl)-1-oxoisoindolin-5-yl)piperazin-1-yl)methyl)piperidin-1-yl)methyl)cyclopropyl)methoxy)-7-(8-ethyl-7-fluoro-3-hydroxynaphthalen-1-yl)-8-fluoropyrido[4,3-d]pyrimidin-4-yl)-N,N-dimethyl-5,6,7,8-tetrahydro-4H-pyrazolo[1,5-a][1,4]diazepine-2-carboxamide]: on KRAS-G12V/RAF1, the IC50 was > 200 nM. Moreover, the DC50 on KRAS G12V was 1 to 10 nM. Also, in the experiment with SW620 cells (SW620 cells, 6 days), the GI50 was < 10 nM.
The corresponding values for `CCc1cccc2cc(O)cc(-c3ncc4c(N5CCCOCC5)nc(OCC5(CN6CCC7(CC6)CC(CN6CCN(c8ccc9c(c8)CN([C@H]8CCC(=O)NC8=O)C9=O)CC6)C7)CC5)nc4c3F)c12` [Compound 109, (S)-3-(5-(4-((7-((1-(((7-(8-ethyl-3-hydroxynaphthalen-1-yl)-8-fluoro-4-(1,4-oxazepan-4-yl)pyrido[4,3-d]pyrimidin-2-yl)oxy)methyl)cyclopropyl)methyl)-7-azaspiro[3.5]nonan-2-yl)methyl)piperazin-1-yl)-1-oxoisoindolin-2-yl)piperidine-2,6-dione] are > 200 nM, > 100 nM and > 100 nM.
The corresponding values for `CCc1cccc2cc(O)cc(-c3ncc4c(N5CCCOCC5)nc(OCC5(CN6CCC(CN7CCN(c8ccc9c(c8)CN([C@H]8CCC(=O)NC8=O)C9=O)CC7)CC6)CC5)nc4c3F)c12` [Compound 110, (S)-3-(5-(4-((1-((1-(((7-(8-ethyl-3-hydroxynaphthalen-1-yl)-8-fluoro-4-(1,4-oxazepan-4-yl)pyrido[4,3-d]pyrimidin-2-yl)oxy)methyl)cyclopropyl)methyl)piperidin-4-yl)methyl)piperazin-1-yl)-1-oxoisoindolin-2-yl)piperidine-2,6-dione] are > 200 nM, > 100 nM and > 100 nM.
The corresponding values for `CCc1c(F)ccc2cc(O)cc(-c3ncc4c(N5CCC(O)CC5)nc(OCC5(CN6CCC7(CC6)CC(CN6CCN(c8ccc9c(c8)CN([C@H]8CCC(=O)NC8=O)C9=O)CC6)C7)CC5)nc4c3F)c12` [Compound 114, (S)-3-(5-(4-((7-((1-(((7-(8-ethyl-7-fluoro-3-hydroxynaphthalen-1-yl)-8-fluoro-4-(4-hydroxypiperidin-1-yl)pyrido[4,3-d]pyrimidin-2-yl)oxy)methyl)cyclopropyl)methyl)-7-azaspiro[3.5]nonan-2-yl)methyl)piperazin-1-yl)-1-oxoisoindolin-2-yl)piperidine-2,6-dione] are > 200 nM, > 100 nM and > 100 nM.
In the case of `CCc1c(F)ccc2cc(O)cc(-c3ncc4c(N5CCC(O)CC5)nc(OCC5(CN6CCC(CN7CCN(c8ccc9c(c8)CN([C@H]8CCC(=O)NC8=O)C9=O)CC7)CC6)CC5)nc4c3F)c12` [Compound 115, (S)-3-(5-(4-((1-((1-(((7-(8-ethyl-7-fluoro-3-hydroxynaphthalen-1-yl)-8-fluoro-4-(4-hydroxypiperidin-1-yl)pyrido[4,3-d]pyrimidin-2-yl)oxy)methyl)cyclopropyl)methyl)piperidin-4-yl)methyl)piperazin-1-yl)-1-oxoisoindolin-2-yl)piperidine-2,6-dione], the IC50 on KRAS-G12V/RAF1 is > 200 nM. At KRAS G12V, the DC50 was > 100 nM. In addition, in the experiment on SW620 cells (SW620 cells, 6 days), the GI50 was > 100 nM.
As to `CCc1c(F)ccc2cc(O)cc(-c3ncc4c(N5CCC[C@@H](O)CC5)nc(OCC5(CN6CCC7(CC6)CC(CN6CCN(c8ccc9c(c8)CN([C@H]8CCC(=O)NC8=O)C9=O)CC6)C7)CC5)nc4c3F)c12` [Compound 116, (S)-3-(5-(4-((7-((1-(((7-(8-ethyl-7-fluoro-3-hydroxynaphthalen-1-yl)-8-fluoro-4-((R)-4-hydroxyazepan-1-yl)pyrido[4,3-d]pyrimidin-2-yl)oxy)methyl)cyclopropyl)methyl)-7-azaspiro[3.5]nonan-2-yl)methyl)piperazin-1-yl)-1-oxoisoindolin-2-yl)piperidine-2,6-dione], the IC50 on KRAS-G12V/RAF1 was > 200 nM. The compound also yielded a DC50 on KRAS G12V of 1 to 10 nM. Besides, the GI50 in the experiment with SW620 cells (SW620 cells, 6 days) was > 100 nM.
